The values that follow come from patent US20070173416A1, “Well treatment compositions for use in acidizing a well” (Halliburton Energy Services, Inc., priority 2006, published 2007).

A short description of one series: physchem. As to conditions: for Half-Life in Neutral Water at 100° C. / half-life: buffer; for hydrolysis rate / reaction rate (comparison in words): deionized water. As to the method: In the following examples, various ester hydrolysis reactions were run in the presence of calcium carbonate (CaCO3) to simulate the consumption of filter cake material. The acid evolved in each reaction was measured per unit of time. The acid generated upon hydrolysis was rapidly consumed in a secondary reaction that produced carbon dioxide (CO2). The half-life was secured when half of the CaCO3 was consumed. That is, using PV=nRT, the amount of CaCO3 that would yield approximately 1 liter of CO2 was calculated to be about 4.47 grams. We doubled the amount of CaCO3 (8.94 grams) for the reactions and then calculated the half-life based on the yield of 1 liter of CO2. Unless otherwise specified, all half-life quotations are actually the time required for 4.47 grams of CaCO3 to be consumed.
The following general procedure was used in each of the examples. The closed system reactor shown in FIG. 1 was used to measure the amount of CO2 gas that evolved in each reaction. Water or brine was added to a boiling flask 10, which was heated to 100° C. […] Once the liquid was boiling, a weighed amount of ester was added to flask 10. The amount of ester employed was always in ratio to the water or to the make-up water used to formulate the brine except where commercially available brines were used. Following addition of the ester to the boiling liquid, a reflux condenser 12 was affixed to flask 10. The top of condenser 12 was fixed with an adapter 14 to an inlet tube 18 in a 2-hole rubber stopper 16. The inlet tube 18 was passed through stopper 16, providing a seal. An outlet tube 22 was run from the bottom of a flask 20 to a 1,000 mL graduated cylinder 24. The flask 20 was charged with XP-07 base oil, commercially available from Halliburton Energy Services, Inc. The outlet tube 22 served the purpose of discharging the oil into graduated cylinder 24. The hydrolysis reaction produced acid in flask 10 that reacted with the CaCO3 to produce CO2 gas. The gas displaced the oil in flask 20 into graduated cylinder 24. The rate of CO2 evolution thus could be monitored visually by reading of the amount of oil in graduated cylinder 24 per unit of time.
Solutions containing various esters of lactic acid and of glycerol (i.e., monoacetin, ethyl lactate, triacetin, tripropionin), butyl formate (a control), and BDF-325 diethyleneglycol diformate (a control) in neutral water were prepared and combined with a molar ratio of CaCO3. Hydrolysis reactions were then carried out using the resulting solutions at 100° C. The hydrolysis reactions were monitored, and the half-lives of the esters were compared. The volume of oil displaced by the CO2 gas is plotted as a function of time in FIG. 2. […] The butyl formate to CaCO3 molar ratio was doubled for comparison purposes.
Solutions containing 10 volume % monoacetin, diacetin, and triacetin in deionized water were prepared and combined with a molar ratio of CaCO3. Hydrolysis reactions were then carried out using the resulting solutions at 100° C. The hydrolysis reactions were monitored, and the half-lives of the esters were compared. The volume of oil displaced by the CO2 gas is plotted as a function of time in FIG. 3.

Another series can be described thus: Solubility in water. It is filed as physicochemical.
The conditions of series [1]: at 100° C.; cited from earlier work.
[2] abbreviates: hydrolysis in neutral water at 100° C.
The mark [3] stands for this setting: Half-Life in Neutral Water at 100° C.

Counter-ions that a name gives are not always drawn. Like-named read-outs stand apart in the source and are kept apart here.

On to `CC(=O)OCC(O)CO` (centres unmarked) [Monoacetin], for which the “half-life versus targeted range (greater than 10 hours at 100° C. desired)” value in “physchem” (10 volume % in deionized water, 100° C.) is listed as “within the targeted range”. In the series “physchem” (10 volume % in deionized water, 100° C., vs triacetin and diacetin), the “consumed more slowly relative to the other two acetins” value is on record as 4-5 times. Moreover, the “Half-Life in Neutral Water at 100° C.” value in the series “physchem” is reported as 38,400 seconds. Further, the “Pseudo First Order Rate Constant” value in “physchem” (setting [2]) is listed as 1.8 × 10^−5 sec.^−1.

Usually half-life stands for how long it takes for the measured level to halve. In the case of `CCOC(=O)C(C)O` (centres unmarked) [Ethyl Lactate], the “hydrolysis in deionized water and various brines” value in “physchem” (10 volume % in deionized water and various brines, 100° C.) is reported as “performed consistently”. Further, the half-life was 8.71 h in “physchem” (setting [3]) and 10 to 11 h in “physchem” (half-life). Further, the “Pseudo First Order Rate Constant” value in the series “physchem” (setting [2]) is on record as 2.2 × 10^−5 sec.^−1.

`CCCCOC(=O)C(C)O` (centres unmarked) [Butyl lactate] gave a half-life in “physchem” (setting [3]) of 21.3 h. Further, the “hydrolysis rate / reaction rate (comparison in words)” value (shortened to “hydrolysis rate / reaction rate”) in “physchem” (100° C.) is “faster than that of the butyl formate”. For the same compound, the “Pseudo First Order Rate Constant” value in the series “physchem” (setting [2]) is given as 9.03 × 10^−6 sec.^−1. Moreover, the solubility in water entry in “Solubility in water” was “slightly soluble”.

For the compound `COC(=O)C(C)O` (centres unmarked) [Methyl lactate], in the series “physchem” (setting [3]), the half-life was 2.71 h. The “Pseudo First Order Rate Constant” value in “physchem” (setting [2]) is recorded as 2.1 × 10^−5 sec.^−1.

In “physchem” (setting [3]), `CCCOC(=O)C(C)O` (centres unmarked) [Propyl lactate] had a half-life of 25.8 h. The “Pseudo First Order Rate Constant” value in the series “physchem” (setting [2]) is recorded as 7.4 × 10^−6 sec.^−1.

Regarding `CCCCOC=O` [butyl formate, reference compound], the “hydrolysis rate / reaction rate” value in “physchem” (100° C.) is “slow reaction rate”. Besides, the solubility in water entry in the series “Solubility in water” is “poor solubility”.

As to `CCC(=O)OCC(COC(=O)CC)OC(=O)CC` [Tripropionin], in the series “physchem”, the “Pseudo First Order Rate Constant” value is given as 1.05 × 10^−5 sec.^−1 and the “Half-Life in Neutral Water at 100° C.” value is 32,344.83 seconds.

`CC(O)C(=O)O` (centres unmarked) [lactic acid]: the “strength of the acid (pH)” value in series [1] is […].

As to `CC(=O)O` [acetic acid], in series [1], the “strength of the acid (pH)” value is on record as 4.76.

In the series “physchem” (setting [3]), `CC(=O)OCC(COC(C)=O)OC(C)=O` [Triacetin] showed a half-life of 2.73 h. In addition, in “physchem” (100° C.), the “hydrolysis rate / reaction rate” value was “very similar”. Besides, the “Pseudo First Order Rate Constant” value in “physchem” (setting [2]) was 7.04 × 10^−5 sec.^−1.

On to `CC(=O)OCC(O)COC(C)=O` [Diacetin], for which the “Half-Life in Neutral Water at 100° C.” value in the series “physchem” is given as 14,600 seconds. The “hydrolysis rate / reaction rate” value in “physchem” (100° C.) is recorded as “very similar”. Also, the “Pseudo First Order Rate Constant” value in the series “physchem” (setting [2]) is on record as 4.75 × 10^−5 sec.^−1.

In the series “physchem” (half-life), `O=COCCOCCOC=O` [diethyleneglycol diformate, reference compound] had a half-life of 0.3 to 0.333 h.
